Legend:
[1] = test system: zymostenol accumulation (EBP) in EpiSC-derived OPCs; test: GC/MS-based sterol profiling, zymostenol accumulation in EpiSC-derived OPCs; type: cell-based, mouse; conditions: Mus musculus, 24 h, EpiSC-derived OPCs, 24 hr, 8 doses from 0.15 nM to 333 nM; read-out: Mouse Zymostenol GCMS EC50
Outline: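 Mouse epiblast stem cell-derived OPCs plated at 100,000 cells/well in growth-factor-free N2B27 and treated 24 h. Sterols extracted by modified Folch wash, silylated with BSTFA, and quantified by electron-impact GC/MS against cholesterol-d7 (zymostenol ion 458). Zymostenol normalised to 24 h 100 nM positive-control reference.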

[2] = target: human emopamil binding protein and human 7-dehydrocholesterol reductase (hEBP-DHCR7) (Homo sapiens (Human), UniProt Q15125); test: hEBP-DHCR7 radioligand binding assay (filter binding, membranes of co-expressing HEK293 cells); conditions: competition with [3H] radioligand, 8 doses 0.06 to 5000 nM, Ki calculated from IC50
Outline: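 Membranes from HEK293 cells transiently co-expressing hEBP and DHCR7 (10 μg/well) were incubated for 3 h at 22 °C with tritiated spiro-sulfone radioligand (added at 25 nM) and compound at 1 μM or 0.06–5000 nM. Filtration and scintillation counting followed. Inhibition was normalised to 5 μM unlabelled ligand and DMSO, and Ki was derived as IC50/(1+[L]/Kd).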

[3] = test system: EpiSC-derived OPCs; test: In vitro phenotypic screening of OPCs, MBP high-content imaging (percentage of oligodendrocytes); type: cell-based, mouse; conditions: Mus musculus, 72 h, 3 days, MBP stain, dose-response 0.5 nM to 1000 nM; read-out: OPC EC50
Procedure: To assess effects of treatments on OPCs, all treatments were assayed in two or more independent platings of epiblast stem cell-derived OPCs (EpiSC). EpiSC-derived OPCs were obtained using in vitro differentiation protocols and culture conditions described previously (Najm et al, 2011, Nature Methods). OPCs were expanded and frozen down in aliquots. OPCs were thawed into growth conditions for at least one passage before use in further assays.
EpiSC-derived OPCs were grown and expanded in poly-L-ornithine (PO) and laminin-coated flasks in N2B27 media (DMEM/F12 (Gibco), N2-MAX (R&D Systems), B-27 (ThermoFisher), and GlutaMax (Gibco)) supplemented with FGF2 (10 μg/mL, R&D systems, 233-FB-025) and PDGF-AA (10 μg/mL, R&D systems, 233-AA-050) before harvesting for experiments. The cells were seeded onto poly-L-ornithine or poly-D-lysine coated CellCarrier Ultra plates (PerkinElmer) coated with laminin (Sigma, L2020) at a density of 150,000/cm^2 in N2B27 media without growth factors. For dose-response testing, a 1000× compound stock in dimethyl sulphoxide (DMSO) was added to assay plates, resulting in 8-point dose curves with final concentrations between 1000 nM and 0.5 nM. Positive controls and DMSO vehicle controls were included in each assay plate. Cells were incubated under standard conditions (37° C., 5% CO2) for 3 days and fixed with 4% paraformaldehyde (PFA) in phosphate buffered saline (PBS) for 20 min. Fixed plates were washed with PBS, permeabilized with 0.1% Triton X-100, and blocked with 10% donkey serum (v/v) in PBS for 40 min. Then, cells were labelled with MBP antibodies (Abcam, ab7349; 1:200) for 2 h at room temperature, washed with PBS, and stained with Alexa Fluor conjugated secondary antibodies (1:500) for 45 min. Nuclei were visualized by DAPI staining (Sigma; […]), followed by further PBS washes.
Cells and cell culture plates were imaged on the Operetta High Content Imaging and Analysis system (PerkinElmer). Analysis (PerkinElmer Harmony and Columbus software) began by identifying intact nuclei stained by DAPI. The peri-nuclear region of each cell was then cross-referenced with the mature myelin protein (MBP) stain to identify oligodendrocyte nuclei, and from this the percentage of oligodendrocytes was calculated. EC50 values were calculated using The Levenberg-Marquardt algorithm to fit a Hill equation to dose-response data (0.5 nM to 1000 nM).

Sequence of human emopamil binding protein and human 7-dehydrocholesterol reductase (hEBP-DHCR7) (Q15125 whole entry): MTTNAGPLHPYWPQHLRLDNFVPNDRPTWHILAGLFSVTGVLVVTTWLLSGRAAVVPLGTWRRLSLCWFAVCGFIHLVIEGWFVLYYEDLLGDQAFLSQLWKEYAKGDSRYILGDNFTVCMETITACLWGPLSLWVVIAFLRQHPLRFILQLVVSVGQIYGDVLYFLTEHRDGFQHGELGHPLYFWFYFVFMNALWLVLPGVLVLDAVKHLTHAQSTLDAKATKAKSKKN

Work on `CC(C)n1nc(-c2cncc(C(F)(F)F)c2)cc1[C@H]1[C@@H]2C[C@H](N3CCOC[C@@H]3C)C[C@@H]21` (single isomer, unassigned) [45*] yielded an EC50 [1] of 11 nM, a Ki [2] of 53 nM and an EC50 [3] of 48 nM.
With `CC(C)n1nc(-c2cncc(C(F)(F)F)c2)cc1[C@H]1[C@@H]2C[C@H](N3CCOC[C@H]3C)C[C@@H]21` (single isomer, unassigned) [46*] the EC50 [1] was 1.42 nM, the Ki [2] was 34.8 nM and the EC50 [3] was 0.907 nM.
In the case of `CC(C)n1nc(-c2cncc(C(F)(F)F)c2)cc1[C@H]1CC[C@H](N2CCOCC2)C1` (single isomer, unassigned) [58*], the EC50 [1] is reported as 25.1 nM, the Ki [2] is reported as 26.2 nM and the EC50 [3] is reported as 138 nM.
With `CC(C)n1nc(-c2cncc(C(F)(F)F)c2)cc1[C@H]1CC[C@@H](N2CCOCC2)C1` (single isomer, unassigned) [60*] the EC50 [1] was 5.52 nM, the Ki [2] was 19.2 nM and the EC50 [3] was 36.2 nM.
Work on `CC(C)n1nc(-c2cncc(C(F)(F)F)c2)cc1[C@@H]1CC[C@H](N2CCOCC2)C1` (single isomer, unassigned) [61*] yielded an EC50 [1] of 21.9 nM, a Ki [2] of 69.1 nM and an EC50 [3] of 102 nM.
Compound `CC(C)n1nc(-c2cncc(C(F)(F)F)c2)cc1[C@@H]1CC[C@H](N2CCCOCC2)C1` (single isomer, unassigned) [62*] has an EC50 [1] of 1.73 nM, a Ki [2] of 13.1 nM and an EC50 [3] of 18.3 nM.
Compound `CC(C)n1nc(-c2cncc(C(F)(F)F)c2)cc1[C@H]1CC[C@H](N2CCCOCC2)C1` (single isomer, unassigned) [63*] has an EC50 [1] of 3.49 nM, a Ki [2] of 14.4 nM and an EC50 [3] of 21.8 nM.
Work on `CC(C)n1nc(-c2cncc(C(F)(F)F)c2)cc1[C@@H]1CC[C@@H](N2CCCOCC2)C1` (single isomer, unassigned) [65*] yielded an EC50 [1] of 16.2 nM, a Ki [2] of 28.2 nM and an EC50 [3] of 103 nM.
`CC(C)n1nc(-c2cccc(C(F)(F)F)c2)nc1[C@H]1[C@@H]2C[C@H](N3CCOC[C@H]3C)C[C@@H]21` (single isomer, unassigned) [70*] gave an EC50 [1] of 6.43 nM, a Ki [2] of 8.76 nM and an EC50 [3] of 0.65 nM.
`CC(C)n1nc(-c2cccc(C(F)(F)F)c2)nc1[C@H]1[C@@H]2C[C@@H](N3CCOC[C@H]3C)C[C@@H]21` (single isomer, unassigned) [71*] was tested, and the EC50 [1] was 205 nM, the Ki [2] was 29 nM and the EC50 [3] was 749 nM.
Work on `CC(C)n1nc(-c2ccc(C(F)(F)F)nc2)cc1[C@@H]1CC[C@H](N2CCN(CCO)CC2)C1` (single isomer, unassigned) [87*] yielded an EC50 [1] of 16.4 nM, a Ki [2] of 26.2 nM and an EC50 [3] of 48.9 nM.
Work on `COCCN1CCN([C@H]2CC[C@@H](c3cc(-c4ccc(C(F)(F)F)nc4)nn3C(C)C)C2)CC1` (single isomer, unassigned) [91*] yielded an EC50 [1] of 11.3 nM, a Ki [2] of 12.8 nM and an EC50 [3] of 67.6 nM.
Compound `COCCN1CCN([C@@H]2CC[C@H](c3cc(-c4ccc(C(F)(F)F)nc4)nn3C(C)C)C2)CC1` (single isomer, unassigned) [93*] has an EC50 [1] of 22.5 nM, a Ki [2] of 19.7 nM and an EC50 [3] of 125 nM.
For `CC[C@@H]1CN([C@@H]2CC[C@H](c3nc(-c4cnc(C(F)(F)F)nc4)nn3C(C)C)C2)CCO1` (single isomer, unassigned) [Compound 109*], the EC50 [1] was 44 nM, the Ki [2] was 164 nM and the EC50 [3] was 285 nM.
In the case of `CC[C@H]1CN([C@@H]2CC[C@H](c3nc(-c4cnc(C(F)(F)F)nc4)nn3C(C)C)C2)CCO1` (single isomer, unassigned) [Compound 110*], the EC50 [1] is reported as 2.48 nM, the Ki [2] is reported as 14.8 nM and the EC50 [3] is reported as 13.9 nM.
`CC(C)n1nc(-c2ccc(C(F)(F)F)c(F)c2)nc1[C@H]1CC[C@@H](N2CCOCC2)C1` (single isomer, unassigned) [Compound 111*] was tested, and the EC50 [1] was 1.64 nM, the Ki [2] was 45 nM and the EC50 [3] was 6.15 nM.
Work on `CC(C)n1nc(-c2ccc(C(F)(F)F)c(F)c2)nc1[C@H]1CC[C@H](N2CCOCC2)C1` (single isomer, unassigned) [Compound 112*] yielded an EC50 [1] of 23.8 nM, a Ki [2] of 90.8 nM and an EC50 [3] of 196 nM.
`CC(C)n1nc(-c2ccc(C(F)(F)F)c(F)c2)nc1[C@@H]1CC[C@H](N2CCOCC2)C1` (single isomer, unassigned) [Compound 113*] was tested, and the EC50 [1] was 1.85 nM, the Ki [2] was 9.73 nM and the EC50 [3] was 4.81 nM.
With `CC(C)n1nc(-c2ccc(C(F)(F)F)c(F)c2)nc1[C@@H]1CC[C@@H](N2CCOCC2)C1` (single isomer, unassigned) [Compound 114*] the EC50 [1] was 8 nM, the Ki [2] was 14.7 nM and the EC50 [3] was 25.7 nM.
`CC(C)n1nc(-c2cncc(C(F)(F)F)c2)nc1[C@H]1CC[C@@H](N2CCOCC2)C1` (single isomer, unassigned) [Compound 118*] was tested, and the EC50 [1] was 11.5 nM, the Ki [2] was 32.2 nM and the EC50 [3] was 93.2 nM.
`CC(C)n1nc(-c2cnc(C(F)(F)F)nc2)cc1[C@H]1CC[C@@H](N2CCO[C@H](CF)C2)C1` (single isomer, unassigned) [Compound 133*] showed an EC50 [1] of 21.2 nM, a Ki [2] of 17.1 nM and an EC50 [3] of 274 nM.
`CC(C)n1nc([C@H]2CC[C@H](C(F)(F)F)CC2)nc1[C@H]1[C@@H]2C[C@@H](N3CCOC[C@H]3C)C[C@@H]21` (single isomer, unassigned) [Compound 165*] gave an EC50 [1] of 4.55 nM, a Ki [2] of 40.4 nM and an EC50 [3] of 35 nM.
In the case of `CC(C)n1nc([C@H]2CC[C@@H](C(F)(F)F)CC2)nc1[C@H]1[C@@H]2C[C@H](N3CCOC[C@H]3C)C[C@@H]21` (single isomer, unassigned) [Compound 166*], the EC50 [1] is reported as 30.5 nM, the Ki [2] is reported as 41 nM and the EC50 [3] is reported as 108 nM.
In the case of `CC(C)n1nc([C@H]2CC[C@@H](C(F)(F)F)CC2)nc1[C@H]1[C@@H]2C[C@@H](N3CCOC[C@H]3C)C[C@@H]21` (single isomer, unassigned) [Compound 167*], the EC50 [1] is reported as 3.58 nM, the Ki [2] is reported as 25.1 nM and the EC50 [3] is reported as 29 nM.
`CC(C)n1nc(-c2ccc(C(F)(F)F)nc2)nc1[C@H]1CC[C@@H](N2CCO[C@H](CF)C2)C1` (single isomer, unassigned) [Compound 169] gave an EC50 [1] of 7.6 nM, a Ki [2] of 30.2 nM and an EC50 [3] of 6.2 nM.
`Cc1ccccc1-c1cc([C@H]2[C@@H]3C[C@H](N4CCCOCC4)C[C@@H]32)n(C(C)C)n1` (single isomer, unassigned) [Compound 197*] showed an EC50 [1] of 5.46 nM, a Ki [2] of 9.87 nM and an EC50 [3] of 10.1 nM.
With `Cc1ccccc1-c1cc([C@H]2[C@@H]3C[C@@H](N4CCCOCC4)C[C@@H]32)n(C(C)C)n1` (single isomer, unassigned) [Compound 198*] the EC50 [1] was 41.3 nM, the Ki [2] was 20.2 nM and the EC50 [3] was 105 nM.
`CC(C)n1nc(-c2cccc(OC(F)F)c2)cc1[C@H]1[C@@H]2C[C@H](N3CCCOCC3)C[C@@H]21` (single isomer, unassigned) [Compound 199*] was tested, and the EC50 [1] was 2.06 nM, the Ki [2] was 8.2 nM and the EC50 [3] was 4.01 nM.
Compound `CC(C)n1nc(-c2cccc(OC(F)F)c2)cc1[C@H]1[C@@H]2C[C@@H](N3CCCOCC3)C[C@@H]21` (single isomer, unassigned) [Compound 200*] has an EC50 [1] of 13.7 nM, a Ki [2] of 11.6 nM and an EC50 [3] of 36.7 nM.
In the case of `CC(C)n1nc(-c2ccc(OC(F)F)cc2)cc1[C@H]1[C@@H]2C[C@H](N3CCCOCC3)C[C@@H]21` (single isomer, unassigned) [Compound 201*], the EC50 [1] is reported as 8.23 nM, the Ki [2] is reported as 11 nM and the EC50 [3] is reported as 24.5 nM.
With `CC(C)n1nc(-c2cccc(C(F)(F)F)n2)nc1[C@@H]1CCC(N2CCOCC2)C1` (stereo in doubt) [26*, 4-((1S,3R)-3-(1-isopropyl-3-(6-(trifluoromethyl)pyridin-2-yl)-1H-1,2,4-triazol-5-yl)cyclopentyl)morpholine] the EC50 [1] was 11.7 nM, the Ki [2] was 22.6 nM and the EC50 [3] was 85 nM.
`CC(C)n1nc(-c2cncc(C(F)(F)F)c2)cc1[C@H]1CC[C@@H](N2CCOCC2)CC1` [1*, 4-((1s,4s)-4-(1-isopropyl-3-(5-(trifluoromethyl)pyridin-3-yl)-1H-pyrazol-5-yl)cyclohexyl)morpholine] gave an EC50 [1] of 20.9 nM, a Ki [2] of 38.9 nM and an EC50 [3] of 80.6 nM.
